In ChEMBL document CHEMBL3045592, “Studies of O,O-dimethyl α-(2,4-dichlorophenoxyacetoxy)ethylphosphonate (HW02) as a new herbicide. 1. Synthesis and herbicidal activity of HW02 and analogues as novel inhibitors of pyruvate dehydrogenase complex” (J Agric Food Chem, 2011):

Assays:
[1] = system: Cucumis sativus; assay: Herbicidal activity against Cucumis sativus Jin 4 (cucumber) assessed as inhibition of stem growth after 3 days; assay type: functional, organism-based; conditions: Jin 4, 72 h
[2] = system: Cucumis sativus; assay: Herbicidal activity against Cucumis sativus Jin 4 (cucumber) assessed as inhibition of root growth after 3 days; assay type: functional, organism-based; conditions: Jin 4, 72 h
[3] = system: Medicago sativa; assay: Post-emergence herbicidal activity against Medicago sativa (alfalfa) assessed as growth inhibition at 1500 ai g/ha after 20 days by green house test; assay type: functional
[4] = system: Amaranthus retroflexus; assay: Post-emergence herbicidal activity against Amaranthus retroflexus assessed as growth inhibition at 1500 ai g/ha after 20 days by green house test; assay type: functional
[5] = system: Brassica rapa subsp. oleifera; assay: Post-emergence herbicidal activity against Brassica rapa subsp. oleifera Si Yue Man assessed as growth inhibition at 1500 ai g/ha after 20 days by green house test; assay type: functional
[6] = system: Digitaria sanguinalis; assay: Post-emergence herbicidal activity against Digitaria sanguinalis (hairy crabgrass) assessed as growth inhibition at 1500 ai g/ha after 20 days by green house test; assay type: functional
[7] = system: Echinochloa crus-galli; assay: Post-emergence herbicidal activity against Echinochloa crus-galli (barnyard grass) assessed as growth inhibition at 1500 ai g/ha after 20 days by green house test; assay type: functional
[8] = system: Medicago sativa; assay: Pre-emergence herbicidal activity against Medicago sativa (alfalfa) assessed as growth inhibition at 1500 ai g/ha after 20 days by green house test; assay type: functional
[9] = system: Amaranthus retroflexus; assay: Pre-emergence herbicidal activity against Amaranthus retroflexus assessed as growth inhibition at 1500 ai g/ha after 20 days by green house test; assay type: functional
[10] = system: Brassica rapa subsp. oleifera; assay: Pre-emergence herbicidal activity against Brassica rapa subsp. oleifera Si Yue Man assessed as growth inhibition at 1500 ai g/ha after 20 days by green house test; assay type: functional
[11] = system: Digitaria sanguinalis; assay: Pre-emergence herbicidal activity against Digitaria sanguinalis (hairy crabgrass) assessed as growth inhibition at 1500 ai g/ha after 20 days by green house test; assay type: functional
[12] = system: Echinochloa crus-galli; assay: Pre-emergence herbicidal activity against Echinochloa crus-galli (barnyard grass) assessed as growth inhibition at 1500 ai g/ha after 20 days by green house test; assay type: functional

Structure (SMILES)	IC50 [1]	IC50 [2]	growth inhibition (GI) [3]	growth inhibition (GI) [4]	growth inhibition (GI) [5]	growth inhibition (GI) [6]	growth inhibition (GI) [7]	growth inhibition (GI) [8]	growth inhibition (GI) [9]	growth inhibition (GI) [10]	growth inhibition (GI) [11]	growth inhibition (GI) [12]
COP(=O)(OC)C(C)OC(=O)C(C)Oc1ccc(Cl)cc1Cl (centres undefined)	6.74 µM	1.42 µM										
CCCC(OC(=O)COc1ccc(Cl)cc1Cl)P(=O)(OC)OC (centres undefined)	9.34 µM	0.0075 µM										
CCCOP(=O)(OCCC)C(OC(=O)C(C)Oc1ccc(Cl)cc1Cl)c1ccccc1 (centres undefined)	44.3 µM	4.52 µM										
COP(=O)(OC)C(OC(=O)C(C)Oc1ccc(Cl)cc1Cl)c1ccccc1 (centres undefined)	30.1 µM											
COP(=O)(OC)C(OC(=O)COc1ccc(Cl)cc1Cl)c1cccc([N+](=O)[O-])c1 (centres undefined)	5.02 µM	0.0034 µM	90%	90%	90%	<=50%	<=50%	90%	90%	90%	<=50%	50%
CCOP(=O)(OCC)C(C)OC(=O)C(C)Oc1ccc(Cl)cc1Cl (centres undefined)		1.08 µM										
CCCOP(=O)(OCCC)C(C)OC(=O)C(C)Oc1ccc(Cl)cc1Cl (centres undefined)	18 µM	2.44 µM										
CCOP(=O)(OCC)C(OC(=O)COc1ccc(Cl)cc1Cl)c1ccccc1 (centres undefined)	109 µM	0.0488 µM										
CCOP(=O)(COC(=O)COc1ccc(Cl)cc1Cl)OCC	13.4 µM											
CCOP(=O)(OCC)C(CC)OC(=O)COc1ccc(Cl)cc1Cl (centres undefined)	25.7 µM	0.31 µM										
CCOP(=O)(OCC)C(OC(=O)COc1ccc(Cl)cc1Cl)c1ccccc1Cl (centres undefined)		1.49 µM										
CCC(OC(=O)COc1ccc(Cl)cc1Cl)P(=O)(OC)OC (centres undefined)	14 µM	0.327 µM	90%	90%	90%	50%	50%	90%	90%	90%	75%	75%
CCCC(OC(=O)C(C)Oc1ccc(Cl)cc1Cl)P(=O)(OC)OC (centres undefined)	13.7 µM	2.98 µM										
COP(=O)(OC)C(C)OC(=O)COc1cccc(C)c1C (centres undefined)			50%	50%	75%	<=50%	50%	75%	75%	90%	<=50%	75%
COP(=O)(OC)C(OC(=O)COc1ccc(C(F)(F)F)cc1[N+](=O)[O-])c1ccccc1 (centres undefined)			<=50%	<=50%	<=50%	<=50%	<=50%	<=50%	<=50%	<=50%	<=50%	<=50%
CCCOP(=O)(OCCC)C(OC(=O)C(C)Oc1ccc(Cl)cc1Cl)c1ccccc1Cl (centres undefined)	164 µM	12.1 µM										
COP(=O)(OC)C(OC(=O)COc1ccc(Cl)cc1)c1ccccc1O (centres undefined)			75%	75%	75%	<=50%	<=50%	90%	<=50%	<=50%	50%	<=50%
COP(=O)(OC)C(OC(=O)COc1ccc(Cl)c(C)c1)c1cccc([N+](=O)[O-])c1 (centres undefined)			75%	75%	<=50%	<=50%	<=50%	75%	75%	50%	50%	<=50%
COP(=O)(OC)C(OC(=O)COc1ccc(F)cc1Cl)c1cccc([N+](=O)[O-])c1 (centres undefined)			50%	90%	75%	50%	75%	90%	90%	90%	90%	90%
COP(=O)(OC)C(C)OC(=O)COc1cccc(F)c1 (centres undefined)			<=50%	<=50%	<=50%	<=50%	<=50%	<=50%	<=50%	<=50%	<=50%	<=50%
COP(=O)(OC)C(OC(=O)COc1ccc(F)c(Cl)c1)c1cccc([N+](=O)[O-])c1 (centres undefined)			50%	75%	50%	75%	50%	50%	50%	<=50%	<=50%	50%
COP(=O)(OC)C(OC(=O)COc1ccc(C)cc1)c1ccccc1 (centres undefined)			50%	50%	50%	<=50%	<=50%	75%	75%	75%	<=50%	<=50%
COP(=O)(OC)C(OC(=O)COc1ccc(C(F)(F)F)cc1)c1ccccc1 (centres undefined)			<=50%	<=50%	<=50%	<=50%	<=50%	<=50%	<=50%	<=50%	<=50%	<=50%
COP(=O)(OC)C(OC(=O)COc1ccc(Cl)cc1Cl)C(Cl)(Cl)Cl (centres undefined)			50%	90%	90%	50%	50%	90%	90%	90%	90%	90%
